Measured values taken from patent US11179384B2, “Treatment of nonalcoholic fatty liver disease” (TAKEDA GMBH, priority 2016, dated 2021).

System: Male C57BL/6J mice (DIO)
Assay: Body weight, fat and lean mass, 4 weeks treatment in diet-induced obese (DIO) mice
Type: in vivo
Conditions: for Body weight change from pretreatment (Day 0): mean±S.D., vehicle +3.8%
Description: Male C57BL/6J mice were obtained from CLEA Japan, Inc. The mice were fed High fat diet D12451 (Research diets, Inc) from 5 week to 54-week old and water ad libitum.
All mice were housed individually in animal cages and used for the study after 2 weeks of acclimation period. Animal groups (n=7) were treated with either vehicle (0.5 w/v % methylcellulose, p.o.) or Compound A (1 mg/kg or 3 mg/kg, p.o. suspension in 0.5 w/v % methylcellulose solution) in the evening once a day for 4 weeks from 50 weeks of age. Body weight was measured 2 or 3 times per week. Regarding body composition fast mass and lean mass were measured.
Body composition (fat mass and lean mass) was measured by Echo-MRI-900 (ALOKA Japan).
All data are presented as mean±S.D. For evaluation of the effects of Compound A, statistical significances between vehicle (p.o.) and Compound A treated groups were analyzed with one-tailed Williams' test or Shirley-Williams test when the variances among the groups were homogeneous or heterogeneous, respectively. The p-values less than 0.025 were considered statistically significant in one-tailed Williams' test or Shirley-Williams test. Body weight change from pretreatment (Day 0) was calculated using the following formula: [(BW-BW at Day 0)/BW at Day 0]×100.

[1] = 1 mg/kg p.o. once a day for 4 weeks
[2] = 1 and 3 mg/kg p.o. once a day for 4 weeks

CCOc1cc2c(cc1OC)C(c1ccc(=O)n(C)c1)=N[C@@H]1CC[C@@H](O)C[C@H]21 [Compound A, 5-((2R,4aR,10bR)-9-Ethoxy-2-hydroxy-8-methoxy-1,2,3,4,4a,10b-hexahydro-phenanthridin-6-yl)-1-methyl-1H-pyridin-2-one]
body weight reduction corrected with vehicle-treated body weight change [1]: −8.7±3.5%
Body weight change from pretreatment (Day 0) [1]: −4.9±3.5%
Body weight change from pretreatment (Day 0) (3 mg/kg p.o. once a day for 4 weeks): −17.2±4.0%
body weight during the 4-week study period (1 and 3 mg/kg p.o. once a day): durable body weight lowering effect
fat mass (Echo-MRI) [2]: dose dependently and significantly decreased
lean mass (Echo-MRI) [2]: without affecting
